Bounds are passed on as bounds.

The subject of assay [1] is beet armyworm (BAW; Spodoptera exigua: Lepidoptera). As to the kind of experiment: 96-well microtiter plate-based high throughput (HTS) diet bioassay on beet armyworm (BAW HTS). Format: in vivo. The conditions noted are these: for BAW HTS: BAW eggs, 12 μg test compound per well, mortality at 6 d post-treatment, mortality class; for pest or weed control at 12 µg/well, 12 µg/well: Spodoptera exigua, 144 h, read-out: BAW HTS. In outline: (§1)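 HTS: eggs on diet topped with 12 μg cpd/well; dark, 29° C; mortality day 6; mean of 6 reps. Tray: 3–5 L2 larvae/well; diet dosed 50 μg/cm^2; 25° C, 14:10 L:D; 6 d; mean of 8 wells. Scored as ≥50% mortality or not.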

For assay [2] the test system is unchanged. As to the kind of experiment: 128-well diet tray assay on beet armyworm (BAW 50). Format: in vivo. The conditions noted are these: for BAW 50 ug/cm2: 128-well diet tray assay, 50 μg/cm^2 of test compound on diet, second instar BAW larvae, mortality class; for pest or weed control at 50 µg/cm2, 50 µg/cm2: Spodoptera exigua, 144 h, read-out: BAW 50 ug/cm2. An outline of the steps: as §1

[3] abbreviates: 96-well microtiter plate HTS diet assay.

Consider `CCCO[C@@H]1[C@@H](OC)[C@H](C)O[C@@H](OC(=O)Nc2ccc(-c3ncc(-c4ccc(OC(F)(F)F)cc4)cn3)cc2)[C@@H]1OC` [Compound 236], for which the “BAW HTS” value in assay [1] (96-well HTS diet assay) was “B (either (1) the compound was tested and less than 50 percent mortality was observed or (2) the compound was not tested)”; in assay [1] (setting [3]), “B (either (1) the compound was tested and less than 50 percent mortality was observed or (2) the compound was not tested)”. For the same compound, in assay [2], the “BAW 50 ug/cm2” value is “A (the compound was tested and at least 50 percent mortality was observed)”.

In the case of `CCO[C@@H]1[C@@H](OC)[C@H](C)O[C@@H](OC(=O)Nc2ccc(-c3nncc(-c4ccc(OC(F)(F)F)cc4)n3)cc2)[C@@H]1OC` [Compound 237], the “BAW HTS” value was “B (either (1) the compound was tested and less than 50 percent mortality was observed or (2) the compound was not tested)” in assay [1] (96-well HTS diet assay); “B (either (1) the compound was tested and less than 50 percent mortality was observed or (2) the compound was not tested)” in assay [1] (setting [3]). Besides, the “BAW 50 ug/cm2” value in assay [2] is “A (the compound was tested and at least 50 percent mortality was observed)”.

With `CCO[C@@H]1[C@@H](OC)[C@H](C)O[C@@H](OC(=O)Nc2ccc(-c3cnnc(-c4ccc(OC(F)(F)F)cc4)n3)cc2)[C@@H]1OC` [Compound 238], the “BAW HTS” value in assay [1] (96-well HTS diet assay) was “B (either (1) the compound was tested and less than 50 percent mortality was observed or (2) the compound was not tested)”; in assay [1] (setting [3]), “B (either (1) the compound was tested and less than 50 percent mortality was observed or (2) the compound was not tested)”. The “BAW 50 ug/cm2” value in assay [2] is “A (the compound was tested and at least 50 percent mortality was observed)”.

Regarding `CCO[C@@H]1[C@@H](OC)[C@H](C)O[C@@H](OC(=O)Nc2ccc(-c3ccc(-c4ccc(OC(F)(F)F)cc4)cn3)cc2)[C@@H]1OC` [Compound 239], the “BAW HTS” value was “B (either (1) the compound was tested and less than 50 percent mortality was observed or (2) the compound was not tested)” in assay [1] (96-well HTS diet assay); “B (either (1) the compound was tested and less than 50 percent mortality was observed or (2) the compound was not tested)” in assay [1] (setting [3]). Besides, in assay [2], the “BAW 50 ug/cm2” value is “B (either (1) the compound was tested and less than 50 percent mortality was observed or (2) the compound was not tested)”.

As for `CCO[C@@H]1[C@@H](OC)[C@H](C)O[C@@H](OC(=O)Nc2ccc(-c3noc(-c4ccc(OC(F)(F)F)cc4)n3)cc2)[C@@H]1OC` [Compound 240], the “BAW HTS” value in assay [1] (96-well HTS diet assay) is “A (the compound was tested and at least 50 percent mortality was observed)”; in assay [1] (setting [3]) it was “A (the compound was tested and at least 50 percent mortality was observed)”. Moreover, the “BAW 50 ug/cm2” value in assay [2] is “A (the compound was tested and at least 50 percent mortality was observed)”.

Consider `CCO[C@@H]1[C@@H](OC)[C@H](C)O[C@@H](OC(=O)Nc2ccc(N3CCN(c4ccc(OC(F)(F)F)cc4)CC3)cc2)[C@@H]1OC` [Compound 241], for which the “BAW HTS” value is “B (either (1) the compound was tested and less than 50 percent mortality was observed or (2) the compound was not tested)” in assay [1] (96-well HTS diet assay); “B (either (1) the compound was tested and less than 50 percent mortality was observed or (2) the compound was not tested)” in assay [1] (setting [3]). In assay [2], the “BAW 50 ug/cm2” value was “B (either (1) the compound was tested and less than 50 percent mortality was observed or (2) the compound was not tested)”.

In the case of `CCO[C@@H]1[C@@H](OC)[C@H](C)O[C@@H](OC(=O)Nc2ccc(N3CC(=O)N(c4ccc(OC(F)(F)F)cc4)CC3=O)cc2)[C@@H]1OC` [Compound 242], the “BAW HTS” value was “B (either (1) the compound was tested and less than 50 percent mortality was observed or (2) the compound was not tested)” in assay [1] (96-well HTS diet assay); “B (either (1) the compound was tested and less than 50 percent mortality was observed or (2) the compound was not tested)” in assay [1] (setting [3]). Further, the “BAW 50 ug/cm2” value in assay [2] was “A (the compound was tested and at least 50 percent mortality was observed)”.

`CCO[C@@H]1[C@@H](OC)[C@H](C)O[C@@H](OC(=O)Nc2ccc(N3CC(=O)N(c4ccc(OC(F)(F)C(F)(F)F)cc4)CC3=O)cc2)[C@@H]1OC` [Compound 243]: the “BAW HTS” value in assay [1] (96-well HTS diet assay) is “B (either (1) the compound was tested and less than 50 percent mortality was observed or (2) the compound was not tested)”; in assay [1] (setting [3]) it was “B (either (1) the compound was tested and less than 50 percent mortality was observed or (2) the compound was not tested)”. In addition, in assay [2], the “BAW 50 ug/cm2” value is “B (either (1) the compound was tested and less than 50 percent mortality was observed or (2) the compound was not tested)”.

In the case of `CO[C@H]1[C@H](C)O[C@H](OC(=O)Nc2ccc(-c3ncn(-c4ccc(OC(F)(F)C(F)(F)F)cc4)n3)cc2)C[C@@H]1OC` [Compound 245], the “BAW HTS” value in assay [1] (96-well HTS diet assay) was “B (either (1) the compound was tested and less than 50 percent mortality was observed or (2) the compound was not tested)”; in assay [1] (setting [3]), “B (either (1) the compound was tested and less than 50 percent mortality was observed or (2) the compound was not tested)”. The “BAW 50 ug/cm2” value in assay [2] is “A (the compound was tested and at least 50 percent mortality was observed)”.

For the compound `CCO[C@@H]1[C@@H](OC)[C@H](C)O[C@@H](OC(=O)Nc2ccc(-c3ccc(-c4ccc(OC(F)(F)F)cc4)nn3)cc2)[C@@H]1OC` [Compound 248], the “BAW HTS” value in assay [1] (96-well HTS diet assay) is “B (either (1) the compound was tested and less than 50 percent mortality was observed or (2) the compound was not tested)”; in assay [1] (setting [3]), “B (either (1) the compound was tested and less than 50 percent mortality was observed or (2) the compound was not tested)”. Moreover, in assay [2], the “BAW 50 ug/cm2” value was “B (either (1) the compound was tested and less than 50 percent mortality was observed or (2) the compound was not tested)”.

Regarding `CCO[C@@H]1[C@@H](OC)[C@H](C)O[C@@H](OC(=O)Nc2ccc(-c3nn(-c4ccc(C(F)(F)F)cc4)c(=O)o3)cc2)[C@@H]1OC` [Compound 249], the “BAW HTS” value in assay [1] (96-well HTS diet assay) is “B (either (1) the compound was tested and less than 50 percent mortality was observed or (2) the compound was not tested)”; in assay [1] (setting [3]), “B (either (1) the compound was tested and less than 50 percent mortality was observed or (2) the compound was not tested)”. The “BAW 50 ug/cm2” value in assay [2] was “B (either (1) the compound was tested and less than 50 percent mortality was observed or (2) the compound was not tested)”.

For `CCO[C@@H]1[C@@H](OC)[C@H](C)O[C@@H](OC(=O)N(C)c2ccc(-c3ncn(-c4ccc(OC(F)(F)F)cc4)n3)cc2)[C@@H]1OC` [Compound 250, methyl {4-[1-(4-trifluoromethoxyphenyl)-1H-[1,2,4]triazol-3-yl]-phenyl}-carbamic acid (2S,3R,4R,5S,6S)-4-ethoxy-3,5-dimethoxy-6-methyl-tetrahydropyran-2-yl ester], the “BAW HTS” value in assay [1] (setting [3]) was “B (either (1) the compound was tested and less than 50 percent mortality was observed or (2) the compound was not tested)”. Further, the pest or weed control at 12 µg/well, 12 µg/well in assay [1] is below 50%. Further, in assay [2], the “BAW 50 ug/cm2” value was “A (the compound was tested and at least 50 percent mortality was observed)”; the pest or weed control at 50 µg/cm2, 50 µg/cm2 was above 50%.

For `CCO[C@@H]1[C@@H](OC)[C@H](C)O[C@@H](OC(=O)N(C)c2ccc(-c3ncn(-c4ccc(OC(F)(F)C(F)(F)F)cc4)n3)cc2)[C@@H]1OC` [Compound 251, methyl {4-[1-(4-pentafluoroethoxy-phenyl)-1H-[1,2,4]triazol-3-yl]-phenyl}-carbamic acid (2S,3R,4R,5S,6S)-4-ethoxy-3,5-dimethoxy-6-methyl-tetrahydropyran-2-yl ester], the “BAW HTS” value in assay [1] (setting [3]) was “B (either (1) the compound was tested and less than 50 percent mortality was observed or (2) the compound was not tested)”. For the same compound, the pest or weed control at 12 µg/well, 12 µg/well in assay [1] is below 50%. For the same compound, in assay [2], the “BAW 50 ug/cm2” value was “A (the compound was tested and at least 50 percent mortality was observed)”; the pest or weed control at 50 µg/cm2, 50 µg/cm2 is above 50%.

As for `CCCO[C@@H]1[C@@H](OC)[C@H](C)O[C@@H](OC(=O)N(CC)c2ccc(-c3ncn(-c4ccc(OC(F)(F)C(F)(F)F)cc4)n3)cc2)[C@@H]1OC` [Compound 253, ethyl {4-[1-(4-pentafluoroethoxy-phenyl)-1H-[1,2,4]triazol-3-yl]-phenyl}-carbamic acid (2S,3R,4R,5S,6S)-4-propoxy-3,5-dimethoxy-6-methyl-tetrahydropyran-2-yl ester], the “BAW HTS” value in assay [1] (setting [3]) was “A (the compound was tested and at least 50 percent mortality was observed)”. Further, in assay [1], the pest or weed control at 12 µg/well, 12 µg/well is above 50%. Moreover, in assay [2], the “BAW 50 ug/cm2” value is “A (the compound was tested and at least 50 percent mortality was observed)”; the pest or weed control at 50 µg/cm2, 50 µg/cm2 was above 50%.

As for `CCO[C@@H]1[C@@H](OC)[C@H](C)O[C@@H](OC(=O)N(COC)c2ccc(-c3ncn(-c4ccc(OC(F)(F)F)cc4)n3)cc2)[C@@H]1OC` [Compound 254, methoxymethyl {4-[1-(4-trifluoromethoxyphenyl)-1H-[1,2,4]triazol-3-yl]-phenyl}-carbamic acid (2S,3R,4R,5S,6S)-4-ethoxy-3,5-dimethoxy-6-methyl-tetrahydropyran-2-yl ester], the “BAW HTS” value in assay [1] (setting [3]) was “A (the compound was tested and at least 50 percent mortality was observed)”. Besides, the pest or weed control at 12 µg/well, 12 µg/well in assay [1] is above 50%. In assay [2], the “BAW 50 ug/cm2” value is “A (the compound was tested and at least 50 percent mortality was observed)”; the pest or weed control at 50 µg/cm2, 50 µg/cm2 was above 50%.

For the origin of these results see patent publication US8178658B2 (Dow AgroSciences, LLC, priority 2008, dated 2012).
